Data from patent publication US5861274A, “Nucleic acids encoding peroxisome proliferator-activated receptor” (The Salk Institute for Biological Studies, priority 1995, dated 1999).
Entries after “also recorded” stand apart in the source; their conditions may differ.

Key:
PPARα = biological target: T1, PPARα (Mus musculus, UniProt P23204); test: Cotransfection assay, PPRE3-TK-LUC reporter with CMX-PPARα; type: cell-based; conditions: CV-1 cells; for rank order of efficacy of activation, PPARα: FIG. 4, 5 μM Wy 14,643, 30 μM linoleic acid, 30 μM LY-171883
T1 sequence (P23204 1-468): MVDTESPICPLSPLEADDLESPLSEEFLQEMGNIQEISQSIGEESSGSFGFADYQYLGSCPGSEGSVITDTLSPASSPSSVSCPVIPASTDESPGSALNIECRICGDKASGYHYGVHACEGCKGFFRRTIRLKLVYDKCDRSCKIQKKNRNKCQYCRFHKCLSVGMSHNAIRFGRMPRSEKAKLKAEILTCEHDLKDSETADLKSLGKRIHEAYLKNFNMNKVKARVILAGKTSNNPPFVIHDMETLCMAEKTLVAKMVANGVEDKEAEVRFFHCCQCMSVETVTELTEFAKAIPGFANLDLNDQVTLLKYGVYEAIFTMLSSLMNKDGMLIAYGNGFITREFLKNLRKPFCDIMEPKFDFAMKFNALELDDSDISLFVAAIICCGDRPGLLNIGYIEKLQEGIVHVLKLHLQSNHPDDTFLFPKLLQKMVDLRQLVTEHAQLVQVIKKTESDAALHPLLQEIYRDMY
Text: (§1) The mammalian expression vectors pCMX-PPARα, pCMX-PPARγ and pCMX-PPARδ were constructed by inserting the cDNA inserts of PPARα, PPARγ, and PPARδ into pCMX as previously described by Umesono et al., in Cell 65:1255-1266 (1991)). Construction of the reporter PPRE3 -TK-LUC has also been previously described by Kliewer et al., (1992) supra. Cotransfection assays in CV-1 cells were done in 48 well plates using N-[1-(2,3-dioleoyloxy)-propyl[N,N,N-trimethylammonium methyl sulfate (DOTAP) according to the manufacturer's instructions (Boehringer Mannheim). Transfections contained […] of receptor expression plasmid vector, 20 ng of the reporter PPRE3 -TK-LUC, 60 ng of pCMX-βGAL (β-galactosidase) as an internal control, and 210 ng of carrier plasmid pGEM. Cells were incubated in the presence of DOTAP for 8 hours, washed, and incubated in the presence of peroxisome proliferators or fatty acids for 36 hours. Cell extracts were prepared and assayed for luciferase and β-galactosidase activity as previously described (Umesono, supra). All experimental points were done in triplicate.

PPARγ = biological target: T2, PPARγ (Mus musculus, UniProt P37238); test: Cotransfection assay, PPRE3-TK-LUC reporter with CMX-PPARγ; type: cell-based; conditions: CV-1 cells; for activation of PPARγ (reporter expression), in words: 5 μM Wy 14,643, 30 μM linoleic acid or 30 μM LY-171883; for rank order of efficacy of activation, PPARγ: FIG. 4, 5 μM Wy 14,643, 30 μM linoleic acid, 30 μM LY-171883
T2 sequence (P37238 31-475 N383S): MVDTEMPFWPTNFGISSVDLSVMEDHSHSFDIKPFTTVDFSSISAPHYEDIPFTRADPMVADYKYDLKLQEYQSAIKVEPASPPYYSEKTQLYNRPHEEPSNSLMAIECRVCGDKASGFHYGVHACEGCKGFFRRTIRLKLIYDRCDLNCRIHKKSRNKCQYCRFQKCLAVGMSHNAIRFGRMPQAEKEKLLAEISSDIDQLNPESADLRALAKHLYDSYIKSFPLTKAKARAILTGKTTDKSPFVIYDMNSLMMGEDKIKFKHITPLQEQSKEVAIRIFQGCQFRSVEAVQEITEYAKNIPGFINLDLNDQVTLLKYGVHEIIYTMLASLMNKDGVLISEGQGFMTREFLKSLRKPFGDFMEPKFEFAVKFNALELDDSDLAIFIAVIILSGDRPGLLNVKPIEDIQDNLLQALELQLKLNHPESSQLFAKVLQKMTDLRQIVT
Text: Luciferase activities are presented as the fold activation achieved in compound-treated versus mock-treated cells. Similar results were obtained in triplicate in three independent experiments.
as §1

PPARδ = biological target: T3, PPARδ (Mus musculus, UniProt P35396); test: Cotransfection assay, PPRE3-TK-LUC reporter with CMX-PPARδ; type: cell-based; conditions: CV-1 cells; for activation of PPARδ (reporter expression), in words: 5 μM Wy 14,643, 30 μM linoleic acid or 30 μM LY-171883; for rank order of efficacy of activation, PPARδ: FIG. 4, 5 μM Wy 14,643, 30 μM linoleic acid, 30 μM LY-171883
T3 sequence (P35396 1-440): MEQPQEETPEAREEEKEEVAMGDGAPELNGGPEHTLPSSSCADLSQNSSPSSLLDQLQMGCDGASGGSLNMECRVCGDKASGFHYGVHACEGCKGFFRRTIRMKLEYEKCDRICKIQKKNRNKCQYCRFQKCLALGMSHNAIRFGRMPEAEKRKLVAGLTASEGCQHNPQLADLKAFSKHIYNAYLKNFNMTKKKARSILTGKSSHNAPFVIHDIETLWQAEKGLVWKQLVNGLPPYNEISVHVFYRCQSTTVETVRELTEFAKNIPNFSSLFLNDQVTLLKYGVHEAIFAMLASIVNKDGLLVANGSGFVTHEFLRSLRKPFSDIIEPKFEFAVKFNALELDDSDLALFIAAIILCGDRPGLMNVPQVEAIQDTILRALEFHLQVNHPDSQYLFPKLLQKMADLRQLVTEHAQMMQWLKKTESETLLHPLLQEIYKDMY
Text: as §1

PPARalpha (Mus musculus) = test: cell_activity; conditions: activation by 5 uM Wy 14,643 in CV-1 cells

Row | rank order of efficacy of activation, PPARα (PPARα) | rank order of efficacy of activation, PPARγ (PPARγ) | rank order of efficacy of activation, PPARδ (PPARδ) | Compound | activation of PPARα (reporter expression), in words (PPARα; 5 μM Wy 14,643, 30 μM linoleic acid or 30 μM LY-171883) | activation of PPARγ (reporter expression), in words (PPARγ) | activation of PPARδ (reporter expression), in words (PPARδ) | activity (PPARalpha (Mus musculus)) [fold]
1 | Wy 14,643>LY-171883>linoleic acid | LY 171883>linoleic acid>Wy 14,643 | linoleic acid>LY-171883 and Wy 14,643 | CCCc1c(OCCCCc2nnn[nH]2)ccc(C(C)=O)c1O [LY-171883] | – | significant activation; also recorded: most efficiently activated | strong activators | –
2 | – | – | – | PPRE3-TK-LUC reporter | – | – | – | > 100
3 | Wy 14,643>LY-171883>linoleic acid | LY 171883>linoleic acid>Wy 14,643 | linoleic acid>LY-171883 and Wy 14,643 | CCCCC/C=C\C/C=C\CCCCCCCC(=O)O [linoleic acid] | – | no activation | strong activators; also recorded: most efficiently activated | –

Row | Compound | rank order of efficacy of activation, PPARα (PPARα) | rank order of efficacy of activation, PPARγ (PPARγ) | rank order of efficacy of activation, PPARδ (PPARδ) | activation of PPARα (reporter expression), in words (PPARα; 5 μM Wy 14,643, 30 μM linoleic acid or 30 μM LY-171883) | activation of PPARγ (reporter expression), in words (PPARγ) | activation of PPARδ (reporter expression), in words (PPARδ) | activity (PPARalpha (Mus musculus)) [fold]
4 | Cc1cccc(Nc2cc(Cl)nc(SCC(=O)O)n2)c1C [Wy 14,643] | Wy 14,643>LY-171883>linoleic acid | LY 171883>linoleic acid>Wy 14,643 | – | most efficiently activated | no activation; also recorded: fail 30 to respond; also recorded: fails to activate | – | –
